Assay results: US11633402B2, “RET inhibitor” (CHUGAI SEIYAKU KABUSHIKI KAISHA, priority 2012, dated 2023)
Values belong to the compound of their own block, whether it stands above or below them.

Key:
RET = RET (Homo sapiens, UniProt P07949); conditions: high concentration (1,000 nM); Cancer Cell 19(5) 679-690, 2011; cited from earlier work
Ba/F3 KIF5B-RET cells = experiment: Cell growth inhibitory activity against KIF5B-RET-expressing Ba/F3 cells (CellTiter-Glo); assay type: cell-based; conditions: Mus musculus, BaF3, 48 h; read-out: cell growth inhibition IC50 value, Ba/F3 KIF5B-RET cells
Procedure: An expression plasmid CS-GS104J-M67 (GeneCopoeia) containing KIF5B-RET variant 1 (gene in which a region from the N-terminus of KIF5B CDS to exon 15 was fused with a region from exon 12 of RET CDS to the C-terminus) (SEQ ID NO: 5) was transfected into mouse lymphocytes Ba/F3 (RIK FN Cell Bank) by electroporation. After transfection, the cells were cultured overnight in an RPMI-1640 medium (Sigma-Aldrich) containing 10% FBS (Bovogen Biologicals) and 1 ng/mL recombinant mouse IL-3 (R&D systems). Then, the culture supernatant was replaced with an RPMl-1640 medium containing 10% LBS. The cells were seeded into a 96-well plate by the limiting dilution method. Approximately 2 weeks later, the expression of phosphorylated RET in cells grown in the absence of IL-3 was detected by Western blotting. […]
The Ba/F3 KIF5B-RET cells were seeded into a 96-well plate at a concentration of 2,500 cells/well in an RPMI-1640 medium containing 10% FBS. […] After culture at 37° C. for 2 days in the presence of 5% CO2, a cell counting reagent CellTiter-Glo® Luminescent Cell Viability Assay (Pronged Corporation) was added thereto and stirred, followed by the measurement of luminescence intensity using a luminescence measurement apparatus Envision (PerkinElmer). […] The IC50 value was determined from the obtained values by the logistic regression method.

[1] = tested on: LC-2/ad-implanted mouse models; experiment: Antitumor activity in xenograft mouse model harboring CCDC6-RET fusion gene; assay type: in vivo; conditions: SCID mice, oral once a day 20 mg/kg or 60 mg/kg for 14 days
Description: LC-2/ad was subcutaneously implanted to SCID mice and randomized after tumor size reached 200 to 350 mm^3. The administration of the compound was started on the day of randomization. The vehicles used for dissolving the compound were 0.02 N HCl, 10% dimethyl sulfoxide. 10% Cremophor EL, 15% PEG400 and 15% HPCD (2-hydroxypropyl-β-cyclodextrin) (indicated by final concentration).

[2] = tested on: LC-2/ad cells (CCDC6-RET fusion gene); experiment: Cell growth inhibitory activity against non-small cell lung cancer cell line LC-2/ad (CellTiter-Glo); assay type: cell-based; conditions: Homo sapiens, 120 h, read-out: cell growth inhibition IC50 value, LC-2/ad cells
Procedure: Cell growth inhibitory activity was evaluated using a non-small cell lung cancer cell line LC-tad (R1KEN, J Thorac Oncol. 2012 December, 7 (12), 1872-6) harboring CCDC6-RET fusion gene.
The LC-2/ad cells were seeded into a 96-well plate at a concentration of 2,000 cells/well in a medium of a 1:1 mixture of RPMI-1640 and Ham containing 15% FBS and 25 mM HEPES and cultured overnight at 37° C. in the presence of 5% CO2. […] Dimethyl sulfoxide was added as a negative control. After culture at 37° C. for 5 days in the presence of 5% CO2, a cell counting reagent CellTiter-Glo® Luminescent Cell Viability Assay was added thereto and stirred, followed by the measurement of luminescence intensity using a luminescence measurement apparatus Envision. The measurement value in a well supplemented with only a medium was defined as a cell viability of 0%, while the measurement value in a well supplemented with dimethyl sulfoxide was defined as a cell viability of 100%. […] The IC50 value was determined from the obtained values by the logistic regression method.

TT cells (RET C634W) = experiment: Cell growth inhibitory activity against thyroid medullary cancer cell line TT (CellTiter-Glo); assay type: cell-based; conditions: Homo sapiens, 120 h, read-out: cell growth inhibition IC50 value, TT cells
Procedure: Cell growth inhibitory activity was evaluated using a thyroid medullary cancer cell line TT (American Type Culture Collection) with a RET kinase active mutation (C634W).
The TT cells were seeded into a 96-well plate at a concentration of 5,000 cells/well in F-12K Nutrient Mixture (Life Technologies Corporation) containing 10% FBS and cultured overnight at 37° C. in the presence of 5% CO2. […] Dimethyl sulfoxide was added as a negative control. After culture at 37° C. for 5 days in the presence of 5% CO2. a cell counting reagent CellTiter-Glo® Luminescent Cell Viability Assay was added thereto and stirred, followed by the measurement of luminescence intensity using a luminescence measurement apparatus Envision. The measurement value in a well supplemented with only a medium was defined as a cell viability of 0%, while the measurement value in a well supplemented with dimethyl sulfoxide was defined as a survival rate of 100%. […] The IC50 value was determined from the obtained values by the logistic regression method.

[3] = tested on: cell lines expressing KIF5B-RET; conditions: J Clin Oncol 30, 2012, suppl; Abstract no: 7510; cited from earlier work
[4] = tested on: KIF5B-RET-expressing cells; conditions: Nature Medicine 2012, 18, p. 378-381; cited from earlier work

Chain of RET (P07949 29-1114): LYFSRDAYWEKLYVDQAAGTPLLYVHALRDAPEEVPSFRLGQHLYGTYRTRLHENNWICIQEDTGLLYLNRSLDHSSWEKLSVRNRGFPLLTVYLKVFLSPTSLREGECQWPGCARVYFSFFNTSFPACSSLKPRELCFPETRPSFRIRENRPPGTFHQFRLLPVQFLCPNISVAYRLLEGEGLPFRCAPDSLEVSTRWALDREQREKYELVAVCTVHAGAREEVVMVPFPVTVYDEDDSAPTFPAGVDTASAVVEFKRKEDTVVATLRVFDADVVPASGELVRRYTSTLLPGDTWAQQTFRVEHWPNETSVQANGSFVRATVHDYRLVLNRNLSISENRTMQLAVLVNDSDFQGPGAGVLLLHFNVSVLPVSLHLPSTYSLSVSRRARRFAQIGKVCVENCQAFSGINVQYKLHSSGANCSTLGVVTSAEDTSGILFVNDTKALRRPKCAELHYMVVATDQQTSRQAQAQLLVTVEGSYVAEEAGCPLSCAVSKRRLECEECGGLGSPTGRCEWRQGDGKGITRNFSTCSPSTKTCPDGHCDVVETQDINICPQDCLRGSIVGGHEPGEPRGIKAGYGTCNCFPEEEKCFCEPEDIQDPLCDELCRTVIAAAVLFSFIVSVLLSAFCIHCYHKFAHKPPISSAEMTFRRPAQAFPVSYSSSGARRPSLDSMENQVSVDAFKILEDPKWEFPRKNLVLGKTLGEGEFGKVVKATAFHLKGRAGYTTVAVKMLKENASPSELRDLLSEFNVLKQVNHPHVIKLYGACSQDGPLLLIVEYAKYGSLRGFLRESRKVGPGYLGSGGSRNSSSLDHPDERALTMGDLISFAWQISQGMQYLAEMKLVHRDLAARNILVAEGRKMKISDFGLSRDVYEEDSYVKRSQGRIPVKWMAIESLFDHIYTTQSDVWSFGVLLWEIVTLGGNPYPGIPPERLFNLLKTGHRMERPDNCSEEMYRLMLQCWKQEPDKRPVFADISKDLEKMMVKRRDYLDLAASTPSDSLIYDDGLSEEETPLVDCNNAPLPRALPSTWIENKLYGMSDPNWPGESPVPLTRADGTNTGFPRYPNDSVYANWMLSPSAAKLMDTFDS

SMILES: CCc1cc2c(cc1N1CCC(N3CCOCC3)CC1)C(C)(C)c1[nH]c3cc(C#N)ccc3c1C2=O [drawing 3]
- kinase inhibition in Ambit Kinase Screening test (RET): inhibits many kinases including RET

- IC50 (Ba/F3 KIF5B-RET cells): 86 nM
- IC50 [2]: 190 nM
- IC50 (TT cells (RET C634W)): 190 nM
SMILES: CCc1cc2c(cc1N1CCC(N3CCOCC3)CC1)C(C)(C)c1[nH]c3cc(C#N)ccc3c1C2=O [compound 1, 9-ethyl-6,6-dimethyl-8-(4-morpholin-4-yl-piperidin-1-yl)-11-oxo-6,11-dihydro-5H-benzo[b]carbazole-3-carbonitrile]
- antitumor activity (tumor growth) ([1]; LC-2/ad subcutaneous): dose-dependent tumor growth inhibitory effect and tumor regression
- body weight loss [1]: significant body weight loss of a mouse was not observed

SMILES: COc1cc2nccc(Oc3ccc(NC(=O)C4(C(=O)Nc5ccc(F)cc5)CC4)cc3)c2cc1OC [XL184]
- cell growth inhibitory effect against cell lines expressing KIF5B-RET [3]: cell growth inhibitory effect

SMILES: CNC(=O)c1cc(Oc2ccc(NC(=O)Nc3ccc(Cl)c(C(F)(F)F)c3)cc2)ccn1 [sorafenih]
- cell growth inhibitory effect against cell lines expressing KIF5B-RET [3]: cell growth inhibitory effect

SMILES: C[C@@H](Oc1cc(-c2cnn(C3CCNCC3)c2)cnc1N)c1c(Cl)ccc(F)c1Cl [crizotinih]
- cell growth inhibitory activity against KIF5B-RET-expressing cells [4]: no cell growth inhibitory activity
